PubChem BioAssay AID1743 (Vanderbilt High Throughput Screening Facility, 2009)

Target: Muscarinic acetylcholine receptor M1 (Rattus norvegicus) (UniProt P08482)
Test: activation of mutant rat M1 receptor calcium signal, mechanism study for M1 allosteric modulator project, cell-based, Y381A mutant, CHO-K1 (AID 1743)
Settings: Fluo-4 calcium flux

Chain of Muscarinic acetylcholine receptor M1 (Rattus norvegicus) (P08482 whole entry Y381A, looked up): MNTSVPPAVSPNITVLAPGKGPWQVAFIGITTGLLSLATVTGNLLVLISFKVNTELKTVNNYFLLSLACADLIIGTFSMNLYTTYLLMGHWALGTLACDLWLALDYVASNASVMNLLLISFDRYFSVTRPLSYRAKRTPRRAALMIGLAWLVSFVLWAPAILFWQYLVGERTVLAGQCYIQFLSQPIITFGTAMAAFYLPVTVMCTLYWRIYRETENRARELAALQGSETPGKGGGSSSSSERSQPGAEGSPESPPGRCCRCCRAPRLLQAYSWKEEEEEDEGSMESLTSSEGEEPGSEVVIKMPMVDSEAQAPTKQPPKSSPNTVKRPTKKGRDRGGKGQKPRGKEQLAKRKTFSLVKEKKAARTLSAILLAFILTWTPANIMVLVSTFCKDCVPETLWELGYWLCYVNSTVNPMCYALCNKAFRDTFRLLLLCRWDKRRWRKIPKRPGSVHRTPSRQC

Row | EC50 | SMILES
1 | 304 nM | CCOC(=O)N1CCC(NCCNC(=O)c2ccccc2)CC1
2 | 1230 nM | CCOC(=O)N1CCC(NCCNC(=O)c2cccs2)CC1
3 | 379 nM | CCOC(=O)N1CCC(NCCNC(=O)c2ccccc2C)CC1
